Patent US20100210562A1, “USE OF IL-1 RECEPTOR PEPTIDE, ALONE OR IN COMBINATION WITH D-ALA-GLN-OCTADECYL ESTER, AS A THERAPEUTIC AGENT” (priority 2007, published 2010)
Where no end group is shown, it is not given here.

Test system: drug-resistant Mycobacterium tuberculosis
Type: cell-based
Conditions: 10 micrograms per ml; seven days at 37° C.; strain resistant to PAS, streptomycin and isoniazid

Substance: D-Ala-Gln-octadecyl ester [Peptide 2]
- inhibition of the growth of Mycobacterium tuberculosis: 100%

Substance: Lys-Ile-Cys-Ile-Arg-Ile-Gln-Ile-Ser-OH (KICIRIQIS-OH) [Peptide 1]
- inhibition of the growth of Mycobacterium tuberculosis: 100%
